Laboratory results published in US20180098993A1, “USE OF (2R, 6R)-HYDROXYNORKETAMINE, (S)-DEHYDRON[…] OTHER STER[…] AND HYDROXYLATED METABOLITES OF (R,S)- KETAMINE IN THE TREATMENT OF DEPRESSION AND NEUROPATHIC PAIN” (THE UNITED STATES OF AMERICA, AS REPRESENTED BY THE …, priority 2011, published 2018).
Structures can show the parent of a compound that is named as a salt. Where two headings read alike, the source gives them in different places.

Legend:
NMDA receptor = NMDA receptor inhibition; assay type: binding; conditions: for Ki: read-out: NMDAR Ki
Experimental: Certain compounds of Formula I discussed in this disclosure were tested in the above serine racemase assay, for NMDA receptor inhibition and inhibition of the nicotinic acetylcholine receptor subtype α7. The assay for nicotinic acetylcholorine receptor subtype α7 is given below in Example 6.

serine racemase [1] = target: T1, serine racemase (Homo sapiens, UniProt Q9GZT4); assay: intracellular D-serine concentration in 1321N1 astrocytoma cells; assay type: cell-based; design: host or cells: 1321N1 astrocytoma; conditions: read-out: IC50, reduction of intracellular D-serine
T1 sequence (Q9GZT4 1-340): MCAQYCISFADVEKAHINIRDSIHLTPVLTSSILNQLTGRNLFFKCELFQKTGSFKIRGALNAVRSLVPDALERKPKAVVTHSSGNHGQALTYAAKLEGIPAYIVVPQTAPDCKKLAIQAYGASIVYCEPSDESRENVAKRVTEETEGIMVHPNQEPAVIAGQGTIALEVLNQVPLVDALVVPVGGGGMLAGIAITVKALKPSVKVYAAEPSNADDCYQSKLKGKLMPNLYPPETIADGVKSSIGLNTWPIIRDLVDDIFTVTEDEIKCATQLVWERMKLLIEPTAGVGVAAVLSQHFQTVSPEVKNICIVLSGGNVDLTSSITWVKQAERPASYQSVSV
From the text: Applicants have determined that ketamine inhibits NMDA (N-methyl-D-aspartic acid) receptors by inhibiting serine racemase and thereby limiting the concentration of D-serine available to interact with the NMDA receptor. An indirect inhibition of SR activity by ketamine or ketamine metabolites through the inhibition of nAChR activity was hypothesized. PC12 cells were chosen to test the hypothesis since the cell line expresses active SR and α7 and α3β4 nAChRs.
The cell lines selected for this study were PC-12 pheochromocytoma derived from rat adrenal medulla, human-derived 1321N1 astrocytoma, rat-derived C6 glioblastoma, and human-derived HepG2 hepatocellular carcinoma. All of the cell lines were obtained from ATCC (Manassas, Va., USA). […]
(§1) Instrumentation: The CE separations were performed with a P/ACE MDQ system equipped with a laser-induced fluorescence detector (Beckman Instruments, Fullerton, Calif., USA). The laser-induced fluorescence detection was carried out with excitation at 488 nm and emission at 520 nm. […] Quantification was accomplished using area ratios calculated for FITC-D-Ser with FITCD-Arg as the internal standard, where the concentration of the internal standard was set at 5 μM. […]

α7 nAChR = target: T2, α7 nAChR (Rattus norvegicus, UniProt Q05941); assay: whole-cell patch clamp, currents evoked by acetylcholine in KXα7R1; assay type: cell-based; conditions: for current evoked by 280 micromolar acetylcholine, normalized to current elicited by ACh alone (Mean): -80 mV, n=4; for inhibition at 0.1 µM: read-out: inhibition (α7) at 100 nM
T2 construct: expressed in transfected cells; host or cells: KXα7R1
T2 sequence (Q05941 23-502): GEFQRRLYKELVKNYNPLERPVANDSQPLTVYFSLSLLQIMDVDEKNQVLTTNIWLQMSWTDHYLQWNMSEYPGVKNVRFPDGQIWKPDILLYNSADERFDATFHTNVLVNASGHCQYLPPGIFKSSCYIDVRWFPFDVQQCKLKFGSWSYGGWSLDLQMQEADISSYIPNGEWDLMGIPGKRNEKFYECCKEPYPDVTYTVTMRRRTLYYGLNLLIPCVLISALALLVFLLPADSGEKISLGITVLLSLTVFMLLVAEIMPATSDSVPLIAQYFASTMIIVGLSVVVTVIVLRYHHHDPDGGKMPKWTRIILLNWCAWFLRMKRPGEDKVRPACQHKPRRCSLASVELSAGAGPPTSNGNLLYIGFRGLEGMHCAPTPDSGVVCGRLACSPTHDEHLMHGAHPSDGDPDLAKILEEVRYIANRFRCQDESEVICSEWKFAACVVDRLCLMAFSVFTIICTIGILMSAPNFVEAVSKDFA
From the text: (§2) Without wishing to be bound to any particular theory applicants believe certain compounds of Formula I exert activity via serine racemase inhibition. Since nicotinic acetylcholine receptors (nAChR) have been validated as a target in analgesia applicants investigated the activity of DHNK at two nAChR subtypes, α7 and α3β4 nAChR. Patch-clamp technique in a whole-cell configuration was used to examine functional activity of ketamine, norketamine, DHNK and HNK metabolites at the α7 and α3β4 neuronal […] receptors (nAChRs). The activity of these compounds at the α3β4 nAChR was investigated using nicotine-stimulated 86Rb+ efflux assays in HEK293 cells expressing the α3β4 nAChR.
Since nicotinic acetylcholine receptors (nAChR) have been validated as a target in analgesia we have investigated the activity of DHNK ([…]) at two nAChR subtypes, α7 and α3β4 nAChR. The patch clamp in a whole cell configuration was used to examine functional activity of ketamine, norketamine, and the DHNK and HNK metabolites on currents evoked by 280 micromolar acetylcholine in the KXα7R1. The data was obtained at −80 mV and normalized to the amplitude of current elicited by ACh alone, n=4.

[2] = plasma half-life and oral bioavailability (statement); conditions: in vivo
α3β4 nAChR = target: T3, α3β4 nAChR (Rattus norvegicus, UniProt P04757+P12392); assay: nicotine-stimulated 86Rb+ efflux in HEK293 cells expressing α3β4 nAChR; whole-cell patch clamp; assay type: cell-based
T3 construct: expressed in transfected cells; host or cells: HEK293
T3 sequence (P04757 26-499): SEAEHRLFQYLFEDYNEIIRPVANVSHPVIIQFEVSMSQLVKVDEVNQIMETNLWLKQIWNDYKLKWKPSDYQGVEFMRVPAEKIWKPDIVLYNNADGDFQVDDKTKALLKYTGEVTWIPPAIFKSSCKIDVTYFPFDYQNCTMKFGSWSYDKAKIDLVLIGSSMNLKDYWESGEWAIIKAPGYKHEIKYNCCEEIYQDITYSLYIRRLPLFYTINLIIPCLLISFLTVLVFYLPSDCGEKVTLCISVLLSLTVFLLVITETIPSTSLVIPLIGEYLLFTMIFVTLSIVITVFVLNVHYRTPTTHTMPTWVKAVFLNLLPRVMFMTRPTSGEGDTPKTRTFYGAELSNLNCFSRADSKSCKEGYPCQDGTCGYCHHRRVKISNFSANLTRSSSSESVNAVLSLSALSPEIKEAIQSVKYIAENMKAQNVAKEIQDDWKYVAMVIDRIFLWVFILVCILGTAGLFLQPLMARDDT
T3 sequence (P12392 21-495): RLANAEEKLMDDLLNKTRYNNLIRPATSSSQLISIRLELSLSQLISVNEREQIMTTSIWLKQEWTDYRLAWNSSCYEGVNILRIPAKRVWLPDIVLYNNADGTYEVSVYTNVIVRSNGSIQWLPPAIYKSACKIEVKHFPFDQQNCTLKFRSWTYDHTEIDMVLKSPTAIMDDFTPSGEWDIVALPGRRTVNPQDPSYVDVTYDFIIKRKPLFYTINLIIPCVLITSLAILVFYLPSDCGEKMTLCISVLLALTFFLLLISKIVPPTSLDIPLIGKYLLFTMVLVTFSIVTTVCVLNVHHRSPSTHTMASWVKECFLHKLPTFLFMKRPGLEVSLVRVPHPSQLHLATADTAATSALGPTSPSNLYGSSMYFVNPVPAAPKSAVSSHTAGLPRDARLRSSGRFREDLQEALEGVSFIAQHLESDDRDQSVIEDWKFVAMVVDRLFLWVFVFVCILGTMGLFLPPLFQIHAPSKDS
From the text: as §2

serine racemase [3] = target: T1, serine racemase; assay: serine racemase inhibition assay (intracellular D-serine by CE-LIF); assay type: cell-based; conditions: 36 h incubation, cell line not stated
From the text: The cell lines selected for this study were PC-12 pheochromocytoma derived from rat adrenal medulla, human-derived 1321N1 astrocytoma, rat-derived C6 glioblastoma, and human-derived HepG2 hepatocellular carcinoma. All of the cell lines were obtained from ATCC (Manassas, Va., USA). The PC12 cells were maintained in RPMI7 1640 with L-Gln supplemented with 10% horse serum (heat inactivated), 5% FBS, 1% sodium pyruvate solution, 1% HEPES buffer and 1% penicillin/streptomycin solution. The 1321N1 and C6 cells were maintained in DMEM with L-Gln supplemented with 10% FBS and 1% penicillin/streptomycin solution. The HepG2 cells were maintained in E-MEM supplemented with 1% L-Gln, 10% FBS, 1% sodium pyruvate solution and 1% penicillin/streptomycin solution.
as §1

`N[C@@]1(c2ccccc2Cl)CCC=CC1=O` [(R)-DHNK, (R)-5,6-dehydroxynorketamine hydrochloride] showed a Ki (NMDA receptor) of 74600 nM.

In the case of `NC1(c2ccccc2Cl)CCC=CC1=O` (racemic) [(R,S)-DHNK, (R,S)-dehydronorketamine], the IC50 (serine racemase [1]) is reported as 16.4 nM, the “activity at α7 nAChR” value (α7 nAChR) is reported as “potent inhibitor” and the “current evoked by 280 micromolar acetylcholine, normalized to current elicited by ACh alone (Mean)” value (α7 nAChR; 100 nM) is reported as 0.407. For the same compound, the “current evoked by 280 micromolar acetylcholine, normalized to current elicited by ACh alone (Mean)” value (α7 nAChR; 1000 nM) was 0.205, the IC50 (α7 nAChR; read-out: IC50 (α7)) was roughly 50 nM and the IC50 (α7 nAChR; read-out: IC50 at α7 nAChR) was 50 nM. The “plasma half-life” value [2] was “long”, the “oral bioavailability” value [2] was “orally bioavailable” and the “activity at α3β4 nAChR” value (α3β4 nAChR) was “inactive”.

In the case of `N[C@]1(c2ccccc2Cl)CCC[C@H](O)C1=O` (stereo in doubt) [(2R,6R)-HNK, (2R,6R)-6-Hydroxynorketamine Hydrochloride], the “current evoked by 280 micromolar acetylcholine, normalized to current elicited by ACh alone (Mean)” value (α7 nAChR; 100 nM) is reported as 0.489, the “current evoked by 280 micromolar acetylcholine, normalized to current elicited by ACh alone (Mean)” value (α7 nAChR; 1000 nM) is reported as 0.354 and the inhibition at 0.1 µM (α7 nAChR) is reported as 51%. It also gave a Ki (NMDA receptor) greater than 100000 nM.

`N[C@]1(c2ccccc2Cl)CCCCC1=O` [(S)-norKet, (S)-norketamine, reference compound] gave an IC50 (serine racemase [3]) of 50 to 120 nM and a Ki (NMDA receptor) of 2250 ± 220 nM.

With `N[C@@]1(c2ccccc2Cl)CCC[C@@H](O)C1=O` [(2S,6S)-HNK, (2S,6S)-6-Hydroxynorketamine Hydrochloride] the “current evoked by 280 micromolar acetylcholine, normalized to current elicited by ACh alone (Mean)” value (α7 nAChR; 100 nM) was 0.461, the “current evoked by 280 micromolar acetylcholine, normalized to current elicited by ACh alone (Mean)” value (α7 nAChR; 1000 nM) was 0.361 and the inhibition at 0.1 µM (α7 nAChR) was 54%. The “plasma half-life” value [2] was “long”, the “oral bioavailability” value [2] was “orally bioavailable” and the Ki (NMDA receptor) was 21200 nM.

For `NC1(c2ccccc2Cl)CCCCC1=O` (racemic) [(R,S)-norKet, norketamine], the “activity at α7 nAChR” value (α7 nAChR) was “inactive”, the “current evoked by 280 micromolar acetylcholine, normalized to current elicited by ACh alone (Mean)” value (α7 nAChR; 100 nM) was 0.548 and the “current evoked by 280 micromolar acetylcholine, normalized to current elicited by ACh alone (Mean)” value (α7 nAChR; 1000 nM) was 0.287. For the same compound, the inhibition at 0.1 µM (α7 nAChR) was 46%.

For `CNC1(c2ccccc2Cl)CCCCC1=O` (centres unmarked) [ketamine], the “activity at α7 nAChR” value (α7 nAChR) was “inactive” and the IC50 (α3β4 nAChR) was 10000 nM.

With `N[C@@]1(c2ccccc2Cl)CCC[C@@H](O)C1=O` [(2R,6R; 2S,6S)-hydroxynorketamine] the “activity at the NMDA receptor” value (NMDA receptor) was “not active”.

`N[C@@]1(c2ccccc2Cl)CCCCC1=O` [(R)-norKet, (R)-norketamine, reference compound] gave an IC50 (serine racemase [3]) of 40 to 80 nM and a Ki (NMDA receptor) of 26500 nM.

`N[C@]1(c2ccccc2Cl)CCC=CC1=O` [(S)-DHNK, (S)-1-amino-2′-chloro-5,6-dihydro-[1,1′-biphenyl]-2(1H)-one] gave a Ki (NMDA receptor) of 39000 nM.
